Test results as given in US8703961B2, “Thiazole derivatives for the treatment of diseases such as cancer” (Merck Patent GmbH, priority 2009, dated 2014).

Experiments:
TBK1 = target: T1, TBK1 (Homo sapiens, UniProt Q9UHD2); assay: filter binding kinase assay; format: biochemical; settings: derived from % inhibition at 1 μM
T1 construct: purchased
T1 sequence (Q9UHD2 1-729): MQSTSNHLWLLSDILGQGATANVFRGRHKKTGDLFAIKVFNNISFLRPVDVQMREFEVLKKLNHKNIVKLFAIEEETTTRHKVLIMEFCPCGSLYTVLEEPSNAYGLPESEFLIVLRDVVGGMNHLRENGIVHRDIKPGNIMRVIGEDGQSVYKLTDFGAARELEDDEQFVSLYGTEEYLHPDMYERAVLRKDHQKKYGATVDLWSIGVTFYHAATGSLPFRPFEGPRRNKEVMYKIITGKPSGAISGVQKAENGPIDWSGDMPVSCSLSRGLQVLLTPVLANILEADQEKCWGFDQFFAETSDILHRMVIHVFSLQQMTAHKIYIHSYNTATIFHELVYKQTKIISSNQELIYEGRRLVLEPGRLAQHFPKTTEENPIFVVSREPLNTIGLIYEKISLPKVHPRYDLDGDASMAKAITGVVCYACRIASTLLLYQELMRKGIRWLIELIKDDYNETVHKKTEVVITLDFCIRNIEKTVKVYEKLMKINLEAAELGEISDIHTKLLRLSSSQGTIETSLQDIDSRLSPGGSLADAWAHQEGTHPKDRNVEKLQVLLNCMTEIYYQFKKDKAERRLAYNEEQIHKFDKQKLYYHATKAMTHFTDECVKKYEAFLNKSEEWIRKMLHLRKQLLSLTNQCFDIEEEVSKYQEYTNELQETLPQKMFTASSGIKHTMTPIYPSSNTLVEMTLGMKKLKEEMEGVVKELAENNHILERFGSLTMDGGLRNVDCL
Method: All kinase assays were carried out using the Multidrop 384 from Thermo-Fisher at room temperature in a total assay volume of 25.5 μl. 15 μl of an enzyme mix comprising enzyme and substrate in buffer are added to the test batch comprising either 0.5 μl of test substance, DMSO control or empty container. Test substances are pre-incubated in the presence of the enzyme and substrate for 5 minutes before the reaction is initiated by addition of 10 μl of ATP (concentration kinase-dependent of […]). The reaction is terminated by addition of 5 μl of orthophosphoric acid (50 mM). The test containers are then transferred onto P81 Unifilter plates by means of a “Packard Harvester” and dried in air. The dry Unifilter plates are sealed after the addition of MicroScint O, and the radioactivity is determined in a Packard Topcount NXT.

melting point	IC50 (TBK1)	Structure (SMILES)
139 to 144 °C		CC(C)(C)OC(=O)Nc1ncsc1C#Cc1ccc(F)cc1 [Compound A15, tert-butyl N-{5-[2-(4-fluorophenyl)ethynyl]-1,3-thiazol-4-yl}carbamate]
	10 to 1000 nM	Nc1ncc(-c2cnn(C3CCNCC3)c2)cc1-c1nc2[nH]c(-c3ccc(F)cc3)cc2s1 [Compound A31]
